Molecules are shown by their SMILES.

Data set [1] in a line: Storage at 25 °C with constant exposure to the air. It counts as physicochemical. The procedure:
The figures also show the separation of PGF2α and its 15-epimer. […] In FIGS. 4, 4a and 4b, all injections represent 100 μg of PGF2α initial samples.

Data set [2] is described as follows: Storage at -20 °C under argon, h.p.l.c. assay. Type of data set: physicochemical. To be noted: samples taken at stipulated times. The procedure: Natural 9α,11α,15(S)-trihydroxy-5-cis,13-trans-prostadienoic acid, natural PGF2α, prepared from total synthesis was a soft, waxy semi-crystalline compound melting in the range of 25°-32°. […] The calibration appears in FIG. 1. FIG. 1, the PGF2α peak height conditions are as follows: column 4 feet ×0.125 inches o.d., column of Corasil -II. […] Flow 0.9ml/min. Reaction times: dioxane front appears at 30 min.
Weighed samples, 0.5-1.0 mg. ± 0.03 mg, of PGF2α and crystalline racemic PGF2α were placed in 1 dram vials. These vials were randomly divided between storage at -20° C under argon and storage at 41 ± 2°, open to the air, in a sand bath. […] In FIG. 2, the loss of PGF2α on storage open to air at 41 ± 2° C is set forth. […] PGF2α. The different symbols are used to indicate different samples. […] The numbers along the x-axis are days at 41 ± 2° C and along the y-axis are percents. The crystalline racemate assayed 103 ± 3% based on the natural compound.

Another data set in a line: physchem. The procedure:
A weighed sample was diluted with dioxane to produce a solution which was 10μg PGF2α /μl of solution. This solution was used to calibrate the response of the differential refractometer of a Waters Assoc. Model 100 high pressure liquid chromatograph (h.p.l.c.). The calibration appears in FIG. 1. FIG. 1, the PGF2α peak height conditions are as follows: column 4 feet ×0.125 inches o.d., column of Corasil -II. Solvent 0.2% HOAc/EtOAc wherein the former is acetic acid and the latter is ethyl acetate. Flow 0.9ml/min. Reaction times: dioxane front appears at […]. PGF2α at 14 min. from injection corresponding to column void volume after void volume displacement. The numbers on the x-axis are μg injected and the numbers along the y-axis indicate detector response in inches at peak heights.
Weighed samples, 0.5-1.0 mg. ± 0.03 mg, of PGF2α and crystalline racemic PGF2α were placed in 1 dram vials. These vials were randomly divided between storage at -20° C under argon and storage at 41 ± 2°, open to the air, in a sand bath. At stipulated times samples were removed from both types of storage, diluted to 10μg PGF2α /μl, and assayed by h.p.l.c. […] Individual assays of 41° C stored samples are collected in FIG. 2. […] The open symbols are for racemic PGF2α and the closed symbols are for nat. PGF2α. The different symbols are used to indicate different samples. Replicate analysis appear as multiple used of the same symbols at any one time. […] The numbers along the x-axis are days at 41 ± 2° C and along the y-axis are percents.
Since, prostaglandins, including the dienoics, are known to be unstable, as they undergo autoxidation on exposure to air. Methods of Biochemical Analysis, Vol. 17, pages 325 to 371, 1969, published by Interscience Publishers, New York.
FIGS. 3, 3a and 3b show the traces from rapid analysis, (at 1 ml/min.). […] In FIGS. 4, 4a and 4b, all injections represent 100 μg of PGF2α initial samples.

Take `CCCCC[C@H](O)/C=C/[C@@H]1[C@@H](C/C=C\CCCC(=O)O)[C@@H](O)C[C@H]1O` (relative stereo) [Polymorph I, racemic 9α,11α,15(S)-trihydroxy-5-cis,13-trans-prostadienoic acid]: the extent of oxidation entry in data set [1] (in 17 days, stated for comparison ("would be")) is listed as “over half oxidized in 17 days”.
As for `CCCCC[C@H](O)/C=C/[C@@H]1[C@@H](C/C=C\CCCC(=O)O)[C@@H](O)C[C@H]1O` (relative stereo) [Polymorph II, crystalline racemic 9α,11α,15(S)-trihydroxy-5-cis,13-trans-prostadienoic acid], the “assay by h.p.l.c. against fresh standards after storage” value in data set [2] is “within experimental error of fresh standards (±6%)”. Further, in data set [1] (25 °C, constant exposure to the air, after more than one year), the “crystalline loss on storage” value is “without any evidence of crystalline loss after more than one year”. Also, the “long term storage stability (overall finding)” value in “physchem” is recorded as “superior long term storage stability”. For the same molecule, the change after storage result in “physchem” (after 14 days, open to air at 41 ± 2 °C) is “unchanged after 14 days”. Besides, the “assay of crystalline racemate based on the natural compound” value in “physchem” (h.p.l.c., differential refractometer, based on natural PGF2α) turned out to be 103 ± 3%. This molecule had a degraded in the data set “physchem” (storage open to air) of 3%.
Turning to `CCCCC[C@H](O)/C=C/[C@@H]1[C@@H](C/C=C\CCCC(=O)O)[C@@H](O)C[C@H]1O` [PGF2α, Natural 9α,11α,15(S)-trihydroxy-5-cis,13-trans-prostadienoic acid, reference compound], the “assay by h.p.l.c. against fresh standards after storage” value in data set [2] is given as “within experimental error of fresh standards (±6%)”. In addition, the “identity of degradation products versus 15-epi-PGF2α” value in “physchem” is “Neither of the degradation products seen in the PGF2α sample stored 9 days at 41 °C corresponds to 15-epi-PGF2α”.
As to `CCCCC[C@H](O)/C=C/[C@@H]1[C@@H](C/C=C\CCCC(=O)O)[C@@H](O)C[C@H]1O` [oily PGF2α, reference compound], in “physchem”, the “course of degradation by oxidation” value is “degrades by oxidation rapidly at first suggestive of a surface reaction, and then more slowly”; the “measured half life of degradation by oxidation” value is recorded as 17 days.

Values taken from US3940438A, “Crystalline racemic 9α,11α,15(S)-trihydroxy-5-cis,13-trans-prostadienoic acid” (priority 1973, dated 1976).
